Data taken from patent US7572798B2, “Combi-molecules having signal transduction inhibitory properties and DNA damaging properties” (McGill University, priority 2001, dated 2009).
Several values for one entry are separate records, joined by “and”; a condition that tells them apart may be missing. Equal values may be shown once.

Legend:
A431 cells [1] = test: SRB growth inhibition assay in A431 cells; assay type: cell-based; conditions: Homo sapiens, A-431, 96 h, read-out: IC50 growth inhibition
A431 cells [2] = test: Colony forming (clonogenic) assay in A431 cells; conditions: Homo sapiens, A-431, 144 h, read-out: IC50 colony formation
EGFR [3] = target: T1, EGFR (Homo sapiens, UniProt P00533); test: EGFR TK ELISA with PGT substrate (competitive binding at the ATP site); assay type: biochemical; parameters: purchased BIOMOL (Plymouth Meeting); also a gift from Pfizer Inc
Procedure: The ability of the combi-molecules to block EGFR TK activity was determined by an ELISA assay using poly(L-glutamic acid-L-tyrosine, 4:1) PGT as a substrate and commercially available EGFR.
Nunc MaxiSorp 96-well plates were incubated overnight at 37° C. with 100μL per well of 0.25 mg/mL PGT in PBS. Excess PGT was removed and the plates were washed 3 times with Tween 20 (0.1%) in PBS. […] The compound was added and phosphorylation initiated by the addition of ATP (20 μM). After 8 min at room temperature with constant shaking, the reaction was terminated by the aspiration of the reaction mixture and by rinsing the plate 4 times with wash buffer (Tween 20 (0.1%) in PBS). […] Antibody was removed by aspiration, and the plates washed 4 times with wash buffer. The signals were developed by the addition of 50 μL per well of TMB peroxidase substrate (Kierkegaard and Perry Laboratories, Gaithersberg, Md.).
This assay is similar to the one previously described. Nunc MaxiSorp 96-well plates were incubated overnight at 37° C. with 100 μl/well of 25 ng/ml PGT in PBS. Excess PGT was removed and the plates were washed three times with wash buffer (Tween 20 (0.1%) in PBS). […] The compound was added and phosphorylation initiated by the addition of ATP (20 μM). After 8 min at room temperature with constant shaking, the reaction was terminated by aspirating the mixture and by rinsing the plates four times with wash buffer Tween 20 (0.1%) in PBS. […] Antibody was removed by aspiration, and the plate washed four times with wash buffer. The signals were developed by the addition of 50 μl/well of 3,3′,5,5′-tetramethylbenzidine (TMB) peroxidase substrate (Kierkegaard and Perry Laboratories, Gaithersberg, Md., USA).

A431 cells [4] = test: Alkaline comet assay for DNA damage in A431 cells; conditions: for DNA damage (comet tail moment): A431, 30 min or 2 h exposure
Procedure: A431 cells were exposed to drugs for 30 min or 2 h, and harvested with trypsin-EDTA. The cells were subsequently collected by centrifugation and re-suspended in PBS. The resulting cell suspension was diluted to approximately 10^6 cells, and mixed with agarose (1%) in PBS at 37° C. in a 1:10 dilution. The gels were cast on Gelbond strips (Mandel Scientific, Guelph, Canada) using gel casting chambers, as previously described (32), then immediately placed into a lysis buffer [2.5 M NaCl, 0.1 M tetra-sodium EDTA, 10 mM tris-base, 1% (w/v) N-lauryl sarcosine, 10% (v/v) DMSO and 1% (v/v) Triton X-100]. After being kept on ice for 30 min, the gels were gently rinsed with distilled water and then immersed in a second lysis buffer [2.5 M NaCl, 0.1 M tetra-sodium EDTA, 10 mM tris-base], containing 1 mg/ml proteinase K for 60 min at 37° C. Thereafter, the gels were rinsed with distilled water, incubated in alkaline electrophoresis buffer for 30 min at 37° C., and electrophoresed at 300 mA for 60 min. The gels were subsequently rinsed with distilled water and placed into 1 M ammonium acetate for 30 min. They were further soaked in 100% ethanol for 2 h, dried overnight and subsequently stained with SYBR Gold ( 1/10000 dilution of stock supplied from Molecular Probes, OR) for 20 min. For evaluation of comets, DNA damage was assessed using the Tail Moment parameter (i.e. the product of the distance between the barycentres of the head and the tail of the comet. A minimum of 50 cell comets were analyzed for each sample using ALKOMET v3.1 software, and values are an average of tail moments for the entire cell population.
Cell suspensions were diluted to approximately 10^6 cells, and mixed with agarose (1%) in PBS at 37° C. in a 1:10 dilution. The gels were cast on Gelbond strips (Mandel Scientific, Guelph, Canada) using gel casting chambers, as previously described (31), and then immediately placed in a lysis buffer [2.5 M NaCl, 0.1 M tetra-sodium EDTA, 10 mM Tris-base, 1% (w/v) N-lauryl sarcosine, 10% (v/v) DMSO, and 1% (v/v) Triton X-100, pH 10.0]. After being kept on ice for 30 min, the gels were gently rinsed with distilled water and immersed in a second lysis buffer (2.5 M NaCl, 0.1 M tetrasodium EDTA, 10 mM Tris-base) containing 1 mg/ml proteinase K for 60 min at 37° C. Thereafter, the gels were rinsed with distilled water, incubated in alkaline electrophoresis buffer for 30 min at 37° C., and electrophoresed at 300 mA for 60 min. The gels were subsequently rinsed with distilled water and placed in 1 M ammonium acetate for 30 min. They were soaked in 100% ethanol for 2 h, dried overnight, and subsequently stained with SYBR Gold ( 1/10000 dilution of stock supplied from Molecular Probes, Eugene, Oreg.) for 20 min. Comets were visualized at 330× magnification and DNA damage was quantitated using the Tail Moment parameter (i.e., the distance between the barycenter of the head and the tail of the comet multiplied by the percentage of DNA within the tail of the comet). A minimum of 50 cell comets were analyzed for each sample, using ALKOMET version 3.1 image analysis software, and values are averages of tail moments for the entire cell population per sample.

EGFR [5] = target: T1, EGFR; test: cell-based
Procedure: The inhibition of receptor autophosphorylation in viable cells was determined by anti-phosphotyrosine Western Blots. A431 cells were pre-incubated overnight for 24 h at 37° C. in a 6-well plate (1×10^6) with 0.1% serum, after which they were exposed to a range of doses for each drug for 2 h and subsequently treated with 50 ng/mL EGF for 30 min at 37° C. The cells were thereafter washed with PBS and re-suspended in cold lysis buffer [50 mM Tris-HCl pH 7.5; 150 mM NaCl; 1% NP40, 1 mM EDTA; 5 mM NaF; 1 mM Na3VO4; protease inhibitor tablet (Roche Biochemicals, Laval, Canada)]. The lysates were kept on ice for 30 min and collected by centrifugation at 10 000 rpm for 20 min at 4° C. The protein concentrations were determined against a standardized control using the Bio-Rad protein assay kit (Bio-Rad Laboratories, Hercules, Calif.). […] Non-specific binding on the PVDF membrane was minimized with a blocking buffer containing nonfat dry milk (3%) in PBS. The membrane was blotted with primary antibodies [either antiphosphotyrosine antibody (UBI, Lake Placid, N.Y.) for the detection of phosphotyrosine, or anti-EGFR (Neomarkers, Fremont, Calif.) for the determination of corresponding receptor levels], and anti-β-tubulin (Neomarkers, Fremont, Calif.) for the detection of equal loading. Thereafter, blots were incubated with HRP-goat anti-mouse antibody (1:200 dilution; Bio-Rad Laboratories, Hercules, Calif.) and the bands visualized with an enhanced chemiluminescence system (Amersham Pharmacia Biotech, Buckinghamshire, UK). Band intensities were measured using the SynGene GeneTools software package (Cambridge, UK).
The inhibition of receptor autophosphorylation in viable cells was determined by anti-phosphotyrosine Western Blots. […] Protein concentrations were determined against a standardized control using the Bio-Rad protein assay kit (Bio-Rad Laboratories, Hercules, Calif.). […] Band intensities were measured using the SynGene GeneTools software package (Cambridge, UK).

A431 cells [6] = test: SRB growth inhibition assay in A431 cells; assay type: cell-based, human
Procedure: All growth inhibitory activities were evaluated using the SRB assay (33). Briefly, following drug treatment, cells were fixed using 50 μL of cold trichloroacetic acid (50%) for 60 min at 4° C., washed five times with tap water, and stained for 30 min at room temperature with SRB (0.4%) dissolved in acetic acid (0.5%). The plates were rinsed five times with 1% acetic acid and allowed to air dry. The resulting colored residue was dissolved in 200 μL of Tris base (10 mM), and the optical density read for each well at 540 nm using a Bio-Rad microplate reader (model 2550). […]
Cell monolayers were continuously exposed to different concentrations of each drug for 72 h. Under short exposure, they were treated with each drug for 2 h and allowed to recover for 72 h in drug-free medium.
To study the reversibility of the antiproliferative effects of our compounds, cells were grown to 70% confluence in 96-well plates and subsequently washed twice with PBS, after which they were exposed to serum-free medium for 18 h. Under continuous exposure, the cells were exposed to different concentrations of each drug for 120 h. Under short exposure, they were exposed to each drug for 2 h, after which they were allowed to recover for 120 h in drug free medium. Growth inhibitory activities were evaluated using the SRB assay as described above.

[7] = target: T2, cytoplasmic domain of the insulin receptor β subunit (Homo sapiens, UniProt P06213); conditions: read-out: IC50 insulin receptor (positive control); cited from earlier work
T2 construct: Baculovirus-expressed cytoplasmic domain of the insulin receptor β subunit; purchased Biomol Research laboratories Inc., USA; host or cells: Baculovirus expression

[8] = Degradation in serum-containing cell culture medium (UV, HPLC); assay type: in vitro ADME; conditions: bovine, serum-containing cell culture medium (RPMI with 10% serum); RPMI with 10% serum, 37° C.; read-out: half-life (t1/2) by UV spectrophotometry at 340 nm
Procedure: Thereafter, proteins were precipitated by the addition of acetonitrile (3.5 ml) and the supernatant collected by centrifugation. […] The operating mode was isocratic and two solutions, “A” (50% acetonitrile) and “B” (50% water), were used with a 0.5 ml/min flow rate and a 5 μL injection volume. […] For the rapid quantitation of metabolite, a less polar acetonitrile-water (70:30) eluent was used.
The half-life was estimated by a one-phase exponential decay curve-fit method using the GraphPad software package (GraphPad Software, Inc., San Diego, Calif.).
The half-life of BJ2000 under physiological conditions was studied by UV-spectrophotometry. BJ2000 was dissolved in a minimum volume of DMSO, diluted with RPMI-1640 supplemented with 10% FBS, and absorbencies read at 340 nm in a UV cell maintained at 37° C. with a circulating water bath. The half-life was estimated by a one-phase exponential decay curve-fit method, using the GraphPad software package (GraphPad software, Inc., San Diego, Calif., USA).
Proteins were thereafter precipitated by the addition of acetonitrile (3.5 ml), and the supernatant collected by centrifugation. […] HPLC analyses were performed on a Hewlett Packard 1090 liquid chromatograph, using a Waters C4 15-μm 300×3.9-mm reverse phase column to characterize and quantitate the products resulting from the degradation of BJ2000. […] The peaks were detected at 250 nm.

EGFR [9] = target: T1, EGFR; test: Reverse EGFR autophosphorylation (reversibility) assay in A431 cells; assay type: cell-based; conditions: A431, 30 μM, 90 min
Procedure: To test this hypothesis, the reversibility assay (40, 41) was used, according to which the cells are treated with the drug for 90 min after which the culture medium is repeatedly removed and replaced 3 times, followed by the measurement of EGFR autophosphorylation.
A431 cells were grown to confluence in 6-well plates and then incubated in serum-free medium for 18 h (41). Duplicate sets of cells were then treated with 30 μM of each compound for 90 min. One set of cells was then stimulated with EGF (100 ng/ml) for 10 min and extracts were made as described under the Western blotting procedure above. The other set of cells was washed free of each compound with warmed serum-free media and incubated for 2 h. Thereafter, the cells were washed, incubated for another 2 h, washed again, and then incubated for a further 4 h. This set of cells was then stimulated with EGF and extracts were prepared as for the first set.

[10] = target: T2, cytoplasmic domain of the insulin receptor β subunit; test: insulin receptor kinase ELISA; assay type: biochemical; conditions: 1-100 μM range
Procedure: (§1) Conditions for the c-src and insulin kinase assays were similar to those of the EGFR kinase assay, with the exception of the addition of 1 mM manganese chloride to the assay buffer, and a final ATP concentration of 100 μM. The reaction was terminated by the addition of 50 μl of a 250 mM solution of EDTA prior to aspiration.

human c-src = target: T3, human c-src (Homo sapiens, UniProt P12931); test: c-src kinase ELISA; assay type: biochemical; conditions: 1-100 μM range
T3 construct: purchased Upstate NY; host or cells: Baculovirus expression
Procedure: as §1

NIH3T3HER14 cells = test: Growth factor-stimulated proliferation in NIH3T3HER14 cells (SRB); assay type: cell-based, mouse; conditions: NIH3T3HER14, 72 h
Procedure: To study the effect of our compounds on growth factors stimulated proliferation, cells were grown to 70% confluence in 48-well plates and washed twice with PBS, after which they were exposed to serum-free medium for 18 h. The cells were then exposed to each drug and growth factors (EGF, TGFα, PDGF or serum) for 72 h and cell growth measured using the sulforhodamine B (SRB) assay (33). Briefly, following drug treatment, cells were fixed using 50 μl of cold trichloroacetic acid (50%) for 60 min at 4° C., washed five times with tap water, and stained for 30 min at room temperature with SRB (0.4%) dissolved in acetic acid (0.5%). The plates were rinsed five times with 1% acetic acid and allowed to air dry. […] Each point represents the average of at least two independent experiments run in triplicate.

[11] = system: NIH3T3 and NIH3T3HER14 cells; test: MTT cytotoxicity assay in NIH3T3 / NIH3T3HER14; assay type: cell-based, mouse
Procedure: The cytotoxic effects of our compounds were evaluated using the 3-(4,5-dimethylthiazo-2-yl)-2,5-diphenyltetrazolium bromide (MTT) assay (42) with minor modifications. Briefly, cells were grown in 24-well plates and then exposed to the compounds for 96 h. MTT (50μl) of (5 mg/ml in sterile PBS) was added to 500 μl of media and the plates were incubated for 2-3 h at 37° C. […] Each point represents the average of at least two independent experiments run in duplicate.

[12] = ELISA, PGT substrate, purified EGFR, ATP 20 μM, 8 min, read-out: IC50, inhibition of EGFR TK (competitive binding at ATP site)
[13] = Homo sapiens, A-431, read-out: IC50 growth inhibition
[14] = Homo sapiens, A-431, 72 h, 72 h continuous exposure, SRB, A431, read-out: IC50 growth inhibition

T1 sequence (P00533 25-1210): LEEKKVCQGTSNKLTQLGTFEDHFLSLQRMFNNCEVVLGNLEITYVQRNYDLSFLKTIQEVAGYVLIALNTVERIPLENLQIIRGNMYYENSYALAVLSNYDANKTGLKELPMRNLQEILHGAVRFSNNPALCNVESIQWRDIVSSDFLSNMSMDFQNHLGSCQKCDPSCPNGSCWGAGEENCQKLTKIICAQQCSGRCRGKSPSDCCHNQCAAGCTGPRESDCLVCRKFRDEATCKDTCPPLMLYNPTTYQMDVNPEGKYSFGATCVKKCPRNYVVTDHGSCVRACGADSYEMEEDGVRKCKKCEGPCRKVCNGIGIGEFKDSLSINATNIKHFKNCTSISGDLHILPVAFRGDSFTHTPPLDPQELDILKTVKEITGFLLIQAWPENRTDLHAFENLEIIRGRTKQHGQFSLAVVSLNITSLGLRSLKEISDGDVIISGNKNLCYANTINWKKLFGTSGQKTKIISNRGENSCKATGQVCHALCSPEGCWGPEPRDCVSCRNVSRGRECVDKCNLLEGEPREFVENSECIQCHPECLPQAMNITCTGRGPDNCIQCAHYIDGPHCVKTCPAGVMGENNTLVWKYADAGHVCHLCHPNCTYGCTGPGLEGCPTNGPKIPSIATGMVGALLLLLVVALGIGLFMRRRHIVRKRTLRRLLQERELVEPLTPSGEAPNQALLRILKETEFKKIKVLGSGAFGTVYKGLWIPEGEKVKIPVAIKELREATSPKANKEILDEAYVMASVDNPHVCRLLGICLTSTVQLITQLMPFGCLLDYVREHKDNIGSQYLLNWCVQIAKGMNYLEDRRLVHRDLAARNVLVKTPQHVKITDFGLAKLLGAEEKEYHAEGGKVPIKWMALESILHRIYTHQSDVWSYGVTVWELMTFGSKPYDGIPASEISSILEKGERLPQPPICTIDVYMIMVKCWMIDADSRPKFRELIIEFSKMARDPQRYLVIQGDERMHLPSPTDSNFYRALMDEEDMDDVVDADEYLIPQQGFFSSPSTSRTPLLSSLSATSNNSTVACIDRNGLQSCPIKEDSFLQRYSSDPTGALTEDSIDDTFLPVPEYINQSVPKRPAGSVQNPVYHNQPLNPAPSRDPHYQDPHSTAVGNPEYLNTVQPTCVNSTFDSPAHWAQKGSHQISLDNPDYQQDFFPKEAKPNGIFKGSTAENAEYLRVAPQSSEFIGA
T2 sequence (P06213 980-1382 limits assumed): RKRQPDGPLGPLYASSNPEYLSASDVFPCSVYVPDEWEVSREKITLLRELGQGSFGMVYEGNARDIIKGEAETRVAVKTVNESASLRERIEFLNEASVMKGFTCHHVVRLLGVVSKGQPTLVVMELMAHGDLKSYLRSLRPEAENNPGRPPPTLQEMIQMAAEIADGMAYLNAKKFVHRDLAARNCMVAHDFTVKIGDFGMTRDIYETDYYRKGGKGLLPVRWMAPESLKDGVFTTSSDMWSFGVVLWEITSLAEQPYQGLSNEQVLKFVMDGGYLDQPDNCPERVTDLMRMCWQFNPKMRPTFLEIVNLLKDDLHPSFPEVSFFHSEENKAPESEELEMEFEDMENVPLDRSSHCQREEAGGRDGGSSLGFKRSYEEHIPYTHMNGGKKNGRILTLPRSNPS
T3 sequence (P12931 whole entry): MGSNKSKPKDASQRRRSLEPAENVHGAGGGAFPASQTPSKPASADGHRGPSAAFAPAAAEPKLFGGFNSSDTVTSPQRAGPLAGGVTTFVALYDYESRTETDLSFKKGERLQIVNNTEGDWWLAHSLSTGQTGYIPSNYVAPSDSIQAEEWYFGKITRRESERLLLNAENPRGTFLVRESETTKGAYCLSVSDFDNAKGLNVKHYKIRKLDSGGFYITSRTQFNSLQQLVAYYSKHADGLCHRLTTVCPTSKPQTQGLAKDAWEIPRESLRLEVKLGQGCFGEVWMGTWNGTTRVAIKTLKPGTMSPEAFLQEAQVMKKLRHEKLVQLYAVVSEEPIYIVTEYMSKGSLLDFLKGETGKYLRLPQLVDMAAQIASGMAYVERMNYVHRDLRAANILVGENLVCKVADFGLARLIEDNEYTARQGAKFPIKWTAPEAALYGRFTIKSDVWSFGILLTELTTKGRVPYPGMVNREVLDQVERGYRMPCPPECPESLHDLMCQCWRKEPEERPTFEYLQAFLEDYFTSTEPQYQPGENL

O=NN(CCCl)C(=O)NCCCl [BCNU, bis-chloroethyl-N-nitrosourea, reference compound]
IC50 (A431 cells [1]): 40 µM

Cc1cccc(Nc2ncnc3ccc(N)cc23)c1 [SMA52, 6-amino-4-[(m-tolyl)amino]quinazoline]
IC50 (A431 cells [2]): 3.7 µM | IC50 (EGFR [3]): 1.02 µM | IC50 (EGFR [3]; [12]): 1 µM | DNA damage (comet tail moment) (A431 cells [4]): does not possess DNA damaging properties | IC50 (EGFR [5]): 8.44 µM | IC50 (A431 cells [6]; Homo sapiens, A-431, 72 h, read-out: IC50 growth inhibition): 59 µM | IC50 (A431 cells [6]; [13]): > 100 µM

CC(=O)OCOC(c1ccc2ccccc2c1)P(=O)(OCOC(C)=O)OCOC(C)=O (centres unmarked) [HNPMA-(AM)3]
IC50 [7]: 100 µM

CNN=Nc1ccc2ncnc(Nc3cccc(C)c3)c2c1 [SMA41]
half-life [8]: ~30 min | IC50 (A431 cells [2]): 4 µM | concentration range with significant comet tail moment / DNA damage (A431 cells [4]; A431, 30 min and 2 h exposure): 6 to 25 µM and 6.25 to 25 µM | DNA damage (comet tail moment) (A431 cells [4]): capable of inducing DNA damage in a dose-dependent manner | concentration range with nuclear condensation (A431 cells [4]; A431, 2 h): 25 to 100 µM | IC50 (A431 cells [6]; 72 h continuous exposure, SRB, A431, read-out: IC50 growth inhibition): ~30 µM | IC50 (A431 cells [6]; Homo sapiens, A-431, 2 h exposure then 72 h recovery in drug-free medium, SRB, A431, read-out: IC50 growth inhibition): 36 µM | IC50 (A431 cells [6]; [14]): 36 µM

Nc1ccc2ncnc(Nc3cccc(Cl)c3)c2c1 [FD105]
EGF-dependent EGFR autophosphorylation immediately after drug exposure (EGFR [9]): completely suppressed | effect on insulin receptor TK [10]: nor did it exert any effect on insulin receptor TK | effect on c-src TK activity (human c-src): did not block c-src TK activity | concentration giving 100% growth inhibition (NIH3T3HER14 cells; EGF or TGFα-induced proliferation): 1 µM | concentration giving 100% inhibition (NIH3T3HER14 cells; PDGF-stimulated growth): approximately 30 μM | DNA damage (comet tail moment) (A431 cells [4]): non-DNA damaging agent | IC50 (A431 cells [6]; [13]): > 100 µM

COCCNN=Nc1ccc2ncnc(Nc3cccc(Br)c3)c2c1 [D R1=MeOCH2CH2—]
IC50 (EGFR [3]; Table 1, means and SE's of two separate experiments, read-out: IC50 (μM), inhibition of EGFR tyrosine kinase activity): 0.071 ± 0.029 µM

Cn1nnc2c(C(N)=O)ncn2c1=O [TEM, temozolomide, reference compound]
fold greater cytotoxic activity in EGFR transfectant NIH3T3HER14 than in parental NIH3T3 [11]: no differential cytotoxicity | IC50 (EGFR [3]; [12]): > 100 µM | IC50 (EGFR [5]): > 100 µM | antiproliferative activity under short and continuous exposure (A431 cells [6]; 2 h + 72 h recovery and 72 h continuous, A431): inactive | IC50 (A431 cells [6]; [14]): 366 µM

CNc1ccc2ncnc(Nc3cccc(C)c3)c2c1 [FD110]
IC50 (EGFR [3]): ~0.05 µM

Cc1cccc(Nc2ncnc3ccc(N(C)C(=O)NCCCl)cc23)c1
melting point: 150 to 151 °C (dec.)

COCCNN=Nc1ccc2ncnc(Nc3cccc(C)c3)c2c1 [E R1=MeOCH2CH2—]
IC50 (EGFR [3]): 0.196 ± 0.031 µM

Cc1cccc(Nc2ncnc3ccc(N(C)C(=O)N(CCCl)N=O)cc23)c1 [FD137, N-(2-Chloroethyl)-N′-methyl-N′-(4-m-tolylaminoquinazolin-6-yl)-N-nitrosourea]
IC50 (A431 cells [1]): 0.8 µM | melting point: 150 to 151 °C (dec.) | level of DNA lesions compared with BCNU (A431 cells [4]; A431): lower levels of DNA lesions than BCNU | DNA damage (comet tail moment) (A431 cells [4]): dose-dependent increase in DNA single strand breaks | fold more potent than BCNU (A431 cells [6]): 50 fold
